Source: PMC5699221 (Biochemistry, 2017)

Assays:
[1] = biological target: PaODH (Pseudomonas aeruginosa, UniProt Q9HUX5); experiment: NADPH fluorescence, titrated with enzyme; type: binding
[2] = biological target: PaNAS (Pseudomonas aeruginosa, UniProt Q9HUX4); experiment: biochemical
[3] = system: N[C@H](Cc1c[nH]cn1)C(=O)O; experiment: purified protein; conditions: co-substrate SAM, coupled with SaODH, NADPH, pyruvate, 50 mM Tris pH 8

Chain of PaNAS (Q9HUX4 whole entry): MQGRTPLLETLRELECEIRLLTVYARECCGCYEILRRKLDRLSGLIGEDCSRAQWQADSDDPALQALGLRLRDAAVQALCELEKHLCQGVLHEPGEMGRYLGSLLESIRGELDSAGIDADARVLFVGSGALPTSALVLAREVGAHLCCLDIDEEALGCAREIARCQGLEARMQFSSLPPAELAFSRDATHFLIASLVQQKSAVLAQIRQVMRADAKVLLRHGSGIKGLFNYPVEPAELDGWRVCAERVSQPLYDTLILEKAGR
Chain of PaODH (Q9HUX5 whole entry): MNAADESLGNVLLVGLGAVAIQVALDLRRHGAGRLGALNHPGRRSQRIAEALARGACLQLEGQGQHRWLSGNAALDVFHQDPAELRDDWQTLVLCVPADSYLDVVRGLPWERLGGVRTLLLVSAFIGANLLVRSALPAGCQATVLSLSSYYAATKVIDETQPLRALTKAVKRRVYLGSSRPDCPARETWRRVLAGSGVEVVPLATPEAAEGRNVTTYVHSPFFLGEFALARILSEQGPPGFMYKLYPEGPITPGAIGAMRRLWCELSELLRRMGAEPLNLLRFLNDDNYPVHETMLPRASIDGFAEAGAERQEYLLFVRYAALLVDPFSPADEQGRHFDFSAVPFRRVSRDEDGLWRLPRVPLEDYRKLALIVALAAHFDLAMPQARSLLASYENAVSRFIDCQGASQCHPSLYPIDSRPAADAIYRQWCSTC

NC(=O)C1=CN([C@@H]2O[C@H](COP(=O)(O)OP(=O)(O)OC[C@H]3O[C@@H](n4cnc5c(N)ncnc54)[C@H](OP(=O)(O)O)[C@@H]3O)[C@@H](O)[C@H]2O)C=CC1 [NADPH]
Kd [1]: 11 ± 1 µM

C[S+](CC[C@H](N)C(=O)O)C[C@H]1O[C@@H](n2cnc3c(N)ncnc32)[C@H](O)[C@@H]1O (stereo partly shown) [SAM]
Kd [2]: 1.2 ± 0.3 µM

SaNAS (Staphylococcus aureus subsp. aureus Mu50)
Km [3]: 13.0 ± 0.7 µM | kcat [3]: 0.0298 ± 0.00033 s⁻¹
